Active and inactive are the calls of the source. No cut-off for these calls is given here.
How the values were obtained:
[1] = molecular target: Transient receptor potential cation channel subfamily V member 1 (Homo sapiens) (UniProt Q8NER1); assay: Agonist activity at TRPV1 (unknown origin) expressed in HEK-293 cells assessed as induction of calcium influx at 50 uM incubated for 48 hrs by Fura2-AM dye based calcium imaging assay; format: cell-based
PC-3 = assay: Cytotoxicity in […] expressing human PC3 cells assessed as reduction in cell viability at 200 uM incubated for 24 to 72 hrs by Cell-titer blue assay; format: functional, cell-based; conditions: TDE = time-dependent effect
[2] = molecular target: Transient receptor potential cation channel subfamily V member 1 (Homo sapiens) (UniProt Q8NER1); assay: Agonist activity at TRPV1 (unknown origin) expressed in HEK-293 cells assessed as induction of calcium influx at 50 uM incubated for 48 hrs by Fura2-AM dye based calcium imaging assay relative to capsaicin; format: cell-based
[3] = Drug degradation in PBS assessed as hydrolysis of western conjugate region at 0.2 mM at 37 degC incubated up to 6 hrs by LC-MS analysis; format: physicochemical; conditions: buffer, 200 µM; for Drug degradation: TDE = time-dependent effect
[4] = molecular target: Transient receptor potential cation channel subfamily V member 1 (Homo sapiens) (UniProt Q8NER1); assay: Binding affinity to TRPV1 in human U251 cells assessed as compound internalization by measuring compound localization in intracellular compartment at 20 uM incubated for 24 hrs by azide-488 fluorophore based in situ click reaction assay and confocal microscopy; format: cell-based
[5] = molecular target: Transient receptor potential cation channel subfamily V member 1 (Homo sapiens) (UniProt Q8NER1); assay: Agonist activity at TRPV1 (unknown origin) expressed in HEK-293 cells assessed as induction of calcium influx at 5 uM incubated for 48 hrs by Fura2-AM dye based calcium imaging assay; format: cell-based

Sequence of Transient receptor potential cation channel subfamily V member 1 (Homo sapiens) (Q8NER1 whole entry): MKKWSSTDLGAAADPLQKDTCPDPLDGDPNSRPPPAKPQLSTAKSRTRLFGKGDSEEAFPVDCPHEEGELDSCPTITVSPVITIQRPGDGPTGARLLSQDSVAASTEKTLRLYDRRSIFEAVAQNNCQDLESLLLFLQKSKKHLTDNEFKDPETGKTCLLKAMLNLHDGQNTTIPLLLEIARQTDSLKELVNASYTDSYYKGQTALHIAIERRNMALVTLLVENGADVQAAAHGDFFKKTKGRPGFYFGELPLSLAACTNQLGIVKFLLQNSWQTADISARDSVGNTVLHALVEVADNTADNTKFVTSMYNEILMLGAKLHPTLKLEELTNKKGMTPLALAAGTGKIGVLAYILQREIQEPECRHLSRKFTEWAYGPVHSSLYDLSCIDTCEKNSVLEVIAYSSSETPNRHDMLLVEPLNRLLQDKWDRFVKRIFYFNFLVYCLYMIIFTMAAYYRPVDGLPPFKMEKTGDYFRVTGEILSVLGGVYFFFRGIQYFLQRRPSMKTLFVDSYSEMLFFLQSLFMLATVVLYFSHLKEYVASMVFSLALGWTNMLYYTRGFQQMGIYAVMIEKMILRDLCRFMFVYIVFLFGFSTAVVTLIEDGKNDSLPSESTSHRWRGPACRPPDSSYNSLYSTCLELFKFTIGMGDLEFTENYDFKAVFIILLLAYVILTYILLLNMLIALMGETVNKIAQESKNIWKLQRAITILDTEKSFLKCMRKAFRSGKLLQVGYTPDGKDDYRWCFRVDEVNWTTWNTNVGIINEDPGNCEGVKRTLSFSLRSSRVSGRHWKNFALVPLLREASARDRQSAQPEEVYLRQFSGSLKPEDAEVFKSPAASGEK

| SMILES | Activity [1] | Activity [2] | Drug degradation [3] | Activity [4] | Activity [5] | Activity (PC-3) | Stability [3] |
| --- | --- | --- | --- | --- | --- | --- | --- |
| COc1cc(CNC(=O)CCCC/C=C/C(C)C)ccc1O [CAPSAICIN] | – | – | – | – | – | – | Stable |
| COc1cc(CNC(=O)CNC(=O)c2ncn3c(=O)n(C)nnc23)ccc1O | Active | 40% | Tde | – | – | Tde | – |
| Cn1nnc2c(C(N)=O)ncn2c1=O | – | – | – | – | – | Tde | – |

Now from value to compound, other results behind:

| Activity [1] | Activity [2] | Drug degradation [3] | Activity [4] | Activity [5] | SMILES | Activity (PC-3) | Stability [3] |
| --- | --- | --- | --- | --- | --- | --- | --- |
| Active | 40% | Tde | – | – | COc1cc(CNC(=O)CCCCNC(=O)c2ncn3c(=O)n(C)nnc23)ccc1O | Tde | – |
| Active | 40% | Tde | – | – | COc1cc(CNC(=O)CCCCCCNC(=O)c2ncn3c(=O)n(C)nnc23)ccc1O | Tde | – |
| – | – | – | Active | Active | C#CCCCCCCCCC(=O)NCc1ccc(O)c(OC)c1 | – | – |

From ChEMBL document CHEMBL4402508, “Natural product-drug conjugates for modulation of TRPV1-expressing tumors” (Bioorg Med Chem, 2019)
